In US8003081B2, “Method for improvement of tolerance for therapeutically effective agents delivered by inhalation” (priority 2004, dated 2011):
Read-outs that look alike come from different tables or passages of the source.

How the values were obtained:
[1] = 100 mg in 2.5 ml of 40 mg/ml solution, PARI LC PLUS nebulizer; cited from earlier work
[2] = tested on: mild to moderate asthma patients; conditions: placebo=0.35
[3] = Shelf-life and storage stability of lidocaine formulations; assay type: physicochemical

CCN(CC)CC(=O)Nc1c(C)cccc1C [lidocaine, acetamide 2-(diethylamino)-N-(2,6-dimethylphenyl)]
duration of oral numbing of lips, tongue and mucosa with impaired gag reflex following inhalation [1]: approximately 15 minutes | AQLQ environmental domain, mean change at week 12 from baseline ([2]; 10 mg lidocaine, p=0.012 v. placebo): 2.09 | AQLQ environmental domain, mean change at week 12 from baseline ([2]; 40 mg lidocaine, p=0.01 v. placebo): 2.45 | stable without loss of strength ([3]; 1%, 4% or 10% solution in Blow-Fill-Seal vials with overwrap, room temperature): 9-12 months | shelf-life of the dry form ([3]; dry form): at least 2 years
